Data reported in patent US20230312578A1, “6H-INDOLO[2,3-B]QUINOXALINE DERIVATIVES USEFUL IN THERAPY” (Vironova Medical AB, priority 2020, published 2023).
Where two headings read alike, the source gives them in different places.

How the values were obtained:
Format in all cases: cell-based
K-562 = assay: Human tumor cell line growth assay (SRB); conditions: K562, Leukemia, K-562, 48 h; for CC50: read-out: LC50 (the source's name)
786-0 = assay: Human tumor cell line growth assay (SRB); conditions: Renal, 786-0, 48 h
MOLT-4 = assay: Human tumor cell line growth assay (SRB); conditions: Homo sapiens; Leukemia, MOLT-4, 48 h
[1] = Human tumor cell line growth assay (SRB); conditions: human, MOLT-4 cells (leukemia), MOLT-4, 48 h, read-out: LC50
HCT-116 = assay: Human tumor cell line growth assay (SRB); conditions: Homo sapiens; Colon, HCT-116, 48 h
SW-620 = assay: Human tumor cell line growth assay (SRB); conditions: Homo sapiens; Colon, SW-620, 48 h
IGR-OV1 = assay: Human tumor cell line growth assay (SRB); conditions: Homo sapiens, IGROV-1; Ovarian, IGR-OV1, 48 h
[2] = Human tumor cell line growth assay (SRB); conditions: human, IGR-OV1 cells (ovarian), IGR-OV1, 48 h, read-out: LC50
OVCAR-8 = assay: Human tumor cell line growth assay (SRB); conditions: Ovarian, OVCAR-8, 48 h; for CC50: read-out: LC50 (the source's name)
CCRF-CEM = assay: Human tumor cell line growth assay (SRB); conditions: Leukemia, 48 h; for CC50: read-out: LC50 (the source's name)
KM12 = assay: Human tumor cell line growth assay (SRB); conditions: Homo sapiens; Colon, KM12, 48 h
MDA-MB-468 = assay: Human tumor cell line growth assay (SRB); conditions: Breast, MDA-MB-468, 48 h; for CC50: read-out: LC50 (the source's name)
TK-10 = assay: Human tumor cell line growth assay (SRB); conditions: Renal, TK-10, 48 h; for CC50: read-out: LC50 (the source's name)
NCI/ADR-RES = assay: Human tumor cell line growth assay (SRB); conditions: Ovarian, 48 h; for CC50: read-out: LC50 (the source's name)
OVCAR-4 = assay: Human tumor cell line growth assay (SRB); conditions: Homo sapiens; Ovarian, OVCAR-4, 48 h
ACHN = assay: Human tumor cell line growth assay (SRB); conditions: Renal, 48 h
SN12C = assay: Human tumor cell line growth assay (SRB); conditions: Renal, 48 h; for CC50: read-out: LC50 (the source's name)
SNB-19 = assay: Human tumor cell line growth assay (SRB); conditions: Homo sapiens; CNS, SNB-19, 48 h
[3] = Human tumor cell line growth assay (SRB); conditions: human, SNB-19 cells (CNS), SNB-19, 48 h, read-out: LC50
SR = assay: Human tumor cell line growth assay (SRB); conditions: Homo sapiens, Leukemia, 48 h
[4] = Human tumor cell line growth assay (SRB); conditions: human, SR cells (leukemia), read-out: LC50
SK-MEL-2 = assay: Human tumor cell line growth assay (SRB); conditions: Homo sapiens; Melanoma, SK-MEL-2, 48 h
A549/ATCC = assay: Human tumor cell line growth assay (SRB); conditions: Homo sapiens, NSCLC, 48 h
T-47D = assay: Human tumor cell line growth assay (SRB); conditions: T47D, Breast, 48 h
MDA-MB-231/ATCC = assay: Human tumor cell line growth assay (SRB); conditions: Breast, 48 h
MALME-3M = assay: Human tumor cell line growth assay (SRB); conditions: Homo sapiens, Melanoma, 48 h
UACC-257 = assay: Human tumor cell line growth assay (SRB); conditions: Homo sapiens; Melanoma, UACC-257, 48 h
RPMI-8226 = assay: Human tumor cell line growth assay (SRB); conditions: Homo sapiens; Leukemia, RPMI-8226, 48 h
CAKI-1 = assay: Human tumor cell line growth assay (SRB); conditions: Renal, CAKI-1, 48 h; for CC50: read-out: LC50 (the source's name)
[5] = Human tumor cell line growth assay (SRB); conditions: human, HCT-116 cells (colon), HCT-116, 48 h, read-out: LC50
[6] = Human tumor cell line growth assay (SRB); conditions: human, SW-620 cells (colon), SW-620, 48 h
[7] = Human tumor cell line growth assay (SRB); conditions: human, KM12 cells (colon), KM12, 48 h, read-out: LC50
[8] = Human tumor cell line growth assay (SRB); conditions: human, OVCAR-4 cells (ovarian), OVCAR-4, 48 h, read-out: LC50
[9] = Human tumor cell line growth assay (SRB); conditions: human, SK-MEL-2 cells (melanoma), SK-MEL-2, 48 h, read-out: LC50
[10] = Human tumor cell line growth assay (SRB); conditions: human, A549/ATCC cells (NSCLC), read-out: LC50
[11] = Human tumor cell line growth assay (SRB); conditions: human, MALME-3M cells (melanoma), read-out: LC50
[12] = Human tumor cell line growth assay (SRB); conditions: human, UACC-257 cells (melanoma), UACC-257, 48 h, read-out: LC50
[13] = read-out: LC50 (the source's name)

Cc1cc2nc3c4cc(O)ccc4n(CCN(C)C)c3nc2cc1C [JBD-139, 6-(2-(dimethylamino)ethyl)-2,3-dimethyl-6H-indolo [2,3-b]quinoxalin-9-ol]
GI50 (K-562): 338 nM | CC50 (K-562): > 100000 nM | GI50 (786-0): 707 nM | GI50 (MOLT-4): 359 nM | CC50 at 48 h [1]: > 100000 nM | GI50 (HCT-116): 326 nM | GI50 (SW-620): 320 nM | GI50 (IGR-OV1): 392 nM | CC50 at 48 h [2]: 98200 nM | GI50 (OVCAR-8): 412 nM | CC50 (OVCAR-8): > 100000 nM | GI50 (CCRF-CEM): 468 nM | CC50 (CCRF-CEM): > 100000 nM | GI50 (KM12): 512 nM | GI50 (MDA-MB-468): 518 nM | CC50 (MDA-MB-468): > 100000 nM | GI50 (TK-10): 1740 nM | CC50 (TK-10): > 100000 nM | GI50 (NCI/ADR-RES): 436 nM | CC50 (NCI/ADR-RES): > 100000 nM | GI50 (OVCAR-4): 882 nM | GI50 (ACHN): 307 nM | GI50 (SN12C): 397 nM | CC50 (SN12C): > 100000 nM | GI50 (SNB-19): 423 nM | CC50 at 48 h [3]: > 100000 nM | GI50 (SR): 289 nM | CC50 at 48 h [4]: > 100000 nM | GI50 (SK-MEL-2): 1100 nM | GI50 (A549/ATCC): 358 nM | GI50 (T-47D): 686 nM | GI50 (MDA-MB-231/ATCC): 544 nM | GI50 (MALME-3M): 623 nM | GI50 (UACC-257): 597 nM | GI50 (RPMI-8226): 366 nM | GI50 (CAKI-1): 259 nM | CC50 (CAKI-1): 5310 nM

Cc1cc2nc3c4ccccc4n(CCN(C)C)c3nc2cc1C [B220, 2-(2,3-dimethyl-6H-indolo [2,3-b]quinoxalin-6-yl)-N,N-dimethylethanamine, reference compound]
GI50 (K-562): 1990 nM | CC50 (K-562): > 100000 nM | GI50 (786-0): 1970 nM | LC50 (786-0): 62000 nM | GI50 (MOLT-4): 555 nM | CC50 at 48 h [1]: 95100 nM | CC50 at 48 h [5]: 44500 nM | GI50 (HCT-116): 488 nM | GI50 (SW-620): 540 nM | LC50 (50% lethal concentration) at 48 h [6]: 35000 nM | GI50 (IGR-OV1): 1280 nM | CC50 at 48 h [2]: 72400 nM | GI50 (OVCAR-8): 1160 nM | CC50 (OVCAR-8): 87200 nM | GI50 (CCRF-CEM): 1990 nM | CC50 (CCRF-CEM): > 100000 nM | CC50 at 48 h [7]: 38600 nM | GI50 (KM12): 1930 nM | GI50 (MDA-MB-468): 1320 nM | CC50 (MDA-MB-468): 9930 nM | GI50 (TK-10): 2970 nM | CC50 (TK-10): 71400 nM | GI50 (NCI/ADR-RES): 1390 nM | CC50 (NCI/ADR-RES): 90200 nM | GI50 (OVCAR-4): 2550 nM | CC50 at 48 h [8]: > 100000 nM | GI50 (ACHN): 555 nM | CC50 (ACHN; [13]): 42200 nM | GI50 (SN12C): 1080 nM | CC50 (SN12C): > 100000 nM | GI50 (SNB-19): 2330 nM | CC50 at 48 h [3]: 68600 nM | GI50 (SK-MEL-2): 1900 nM | CC50 at 48 h [9]: 7490 nM | GI50 (A549/ATCC): 1280 nM | CC50 at 48 h [10]: > 100000 nM | GI50 (T-47D): 2800 nM | CC50 (T-47D; [13]): > 100000 nM | GI50 (MDA-MB-231/ATCC): 1760 nM | CC50 (MDA-MB-231/ATCC; [13]): 54900 nM | GI50 (MALME-3M): 1410 nM | CC50 at 48 h [11]: 53300 nM | GI50 (UACC-257): 1940 nM | CC50 at 48 h [12]: 5990 nM | GI50 (CAKI-1): 982 nM | CC50 (CAKI-1): > 100000 nM
